Assay results: ChEMBL document CHEMBL1147527, “Parallel synthesis of DAPT derivatives and their gamma-secretase-inhibitory activity” (Bioorg Med Chem Lett, 2004)
The source made the active and inactive calls. The rule behind the calls is not given here.

Tests used:
[1] = molecular target: T1, Gamma-secretase subunit PEN-2 (Homo sapiens, UniProt Q9NZ42); assay: Inhibitory activity against gamma-secretase at concentration of 10 uM; not active
[2] = molecular target: Gamma-secretase (Homo sapiens) (UniProt Q96BI3+Q9NZ42+Q8WW43+P49768+Q92542+P49810); assay: (§1) Inhibitory activity against gamma-secretase relative to DAPT; type: protein-complex assay
[3] = molecular target: T1, Gamma-secretase subunit PEN-2; assay: as §1
[4] = molecular target: T1, Gamma-secretase subunit PEN-2; assay: Inhibitory activity against gamma-secretase

T1 sequence (Q9NZ42 whole entry): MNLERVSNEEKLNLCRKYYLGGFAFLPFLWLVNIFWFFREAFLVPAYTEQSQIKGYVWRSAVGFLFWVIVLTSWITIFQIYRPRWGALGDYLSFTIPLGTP

Compound | Relative activity [2] | also measured
C[C@H](NC(=O)Cc1cccc(Br)c1)C(=O)N[C@@H](Cc1ccccc1)C(=O)OC(C)(C)C |  | Activity [1]: inactive
C[C@H](NC(=O)Cc1ccccc1O)C(=O)N[C@@H](Cc1ccccc1)C(=O)OC(C)(C)C |  | Activity [1]: inactive
CCCCNC(=O)[C@H](Cc1ccccc1)NC(=O)[C@H](C)NC(=O)Cc1cc(F)cc(F)c1 |  | Relative activity [3]: 0.3
C[C@H](NC(=O)Cc1cc(F)cc(F)c1)C(=O)N[C@@H](Cc1ccccc1)C(=O)NC(c1ccccc1)c1ccccc1 |  | Relative activity [3]: 1
C[C@H](NC(=O)Cc1ccc(O)cc1)C(=O)N[C@@H](Cc1ccccc1)C(=O)OC(C)(C)C |  | Activity [1]: inactive
C[C@H](NC(=O)Cc1ccc(Br)cc1)C(=O)N[C@@H](Cc1ccccc1)C(=O)OC(C)(C)C |  | Activity [1]: inactive
C[C@H](NC(=O)Cc1cc(F)cc(F)c1)C(=O)N[C@@H](Cc1ccccc1)C(=O)NCc1ccccc1 |  | Relative activity [3]: 1
C[C@H](NC(=O)Cc1cccc(O)c1)C(=O)N[C@@H](Cc1ccccc1)C(=O)OC(C)(C)C |  | Activity [1]: inactive
C[C@H](NC(=O)Cc1cc(F)cc(F)c1)C(=O)N[C@@H](Cc1ccccc1)C(=O)OC(C)(C)C |  | Relative activity [3]: 1; IC50 [4]: 50 nM
C[C@H](NC(=O)Cc1ccccc1Br)C(=O)N[C@@H](Cc1ccccc1)C(=O)OC(C)(C)C |  | Activity [1]: inactive
COC(=O)c1ccc(CNC(=O)[C@H](Cc2ccccc2)NC(=O)[C@H](C)NC(=O)Cc2cc(F)cc(F)c2)cc1 | 0.6 | 

Continued, in another order:

Relative activity [2] | Compound | also measured
0.1 | C[C@H](NC(=O)Cc1cc(F)cc(F)c1)C(=O)N[C@@H](Cc1ccccc1)C(=O)NCc1ccccc1Cl | 
0.2 | COc1ccccc1CNC(=O)[C@H](Cc1ccccc1)NC(=O)[C@H](C)NC(=O)Cc1cc(F)cc(F)c1 | 
0.1 | C[C@H](NC(=O)Cc1cc(F)cc(F)c1)C(=O)N[C@@H](Cc1ccccc1)C(=O)NCc1cccc(Br)c1 | 
0.4 | COc1ccc(CNC(=O)[C@H](Cc2ccccc2)NC(=O)[C@H](C)NC(=O)Cc2cc(F)cc(F)c2)cc1 | 
0.1 | C[C@H](NC(=O)Cc1cc(F)cc(F)c1)C(=O)N[C@@H](Cc1ccccc1)C(=O)NCc1ccc(F)cc1 | 
0.6 | C[C@H](NC(=O)Cc1cc(F)cc(F)c1)C(=O)N[C@@H](Cc1ccccc1)C(=O)NCc1ccc(Br)cc1 | 
0.6 | C[C@H](NC(=O)Cc1cc(F)cc(F)c1)C(=O)N[C@@H](Cc1ccccc1)C(=O)NCc1ccc(Cl)cc1 | 
0.1 | COc1cccc(CNC(=O)[C@H](Cc2ccccc2)NC(=O)[C@H](C)NC(=O)Cc2cc(F)cc(F)c2)c1 | 
30 | C[C@H](NC(=O)Cc1cc(F)cc(F)c1)C(=O)N[C@@H](Cc1ccccc1)C(=O)NCc1ccc(C(=O)c2ccccc2)cc1 | 
0.3 | C[C@H](NC(=O)Cc1cc(F)cc(F)c1)C(=O)N[C@@H](Cc1ccccc1)C(=O)NCc1ccccc1Br | 
0.1 | C[C@H](NC(=O)Cc1cc(F)cc(F)c1)C(=O)N[C@@H](Cc1ccccc1)C(=O)NCc1cccc(Cl)c1 | 
